Laboratory results: patent US7812170B2, “Insecticides” (Syngenta Crop Protection, Inc., priority 2004, dated 2010)

Tests used:
Plutella xylostella = test: Activity against Plutella xylostella (sprayed cabbage plants); assay type: in vivo; settings: 72 h, 400 ppm active ingredient, sprayed young cabbage plants, 3rd instar caterpillars, 3 days, read-out: percentage reduction in the population and in the feeding damage (% activity)
Protocol: (§1) Activity Against Plutella xylostella Young cabbage plants are sprayed with an aqueous emulsion spray mixture comprising 400 ppm of active ingredient and, after the spray coating has dried on, populated with 10 caterpillars (3rd instar) of Plutella xylostella and introduced into a plastic container. 3 days later, the percentage reduction in the population and in the feeding damage (% activity) are determined by comparing the number of dead caterpillars and the feeding damage between the treated and untreated plants.

Heliothis virescens = test: Activity against Heliothis virescens (foliar application); assay type: in vivo; settings: 144 h, 400 ppm active ingredient, sprayed young soya plants, 1st instar caterpillars, 6 days, read-out: percentage reduction in the population and in the feeding damage (% activity)
Protocol: as §1, with “Against Heliothis virescens (Foliar Application)” for “Against Plutella xylostella”, “Young soya” for “Young cabbage”, “caterpillars (1st” for “caterpillars (3rd”, “of Heliothis virescens” for “of Plutella xylostella”, “container. 6” for “container. 3”

Spodoptera littoralis = test: Activity against Spodoptera littoralis (sprayed soya plants); assay type: in vivo; settings: 72 h, 400 ppm active ingredient, sprayed young soya plants, 1st instar caterpillars, 3 days, read-out: percentage reduction in the population and in the feeding damage (% activity)
Protocol: as §1, with “Spodoptera littoralis” for “Plutella xylostella”, “soya” for “cabbage”, “(1st” for “(3rd”

SMILES | melting point | inhibition at 400 ppm (Plutella xylostella) | inhibition at 400 ppm (Heliothis virescens) | inhibition at 400 ppm (Spodoptera littoralis)
CNC(=O)c1cc2c(c(Br)c1NC(=O)c1cc(C(F)(F)F)nn1-c1ncccc1Cl)OC(C)(C)O2 | 274 to 276 °C | – | – | –
CNC(=O)c1cc2c(c(C)c1NC(=O)c1cc(C(F)(F)F)nn1-c1ncccc1Cl)OC(C)(C)O2 | 242 to 244 °C | – | – | –
Cc1c(NC(=O)c2cc(C(F)(F)F)nn2-c2ncccc2Cl)c(C(=O)NC(C)C)cc2c1OC(C)(C)O2 | 256 to 258 °C | – | – | –
CNC(=O)c1cc2c(c(Cl)c1NC(=O)c1cc(C(F)(F)F)nn1-c1ncccc1Cl)OC(F)(F)O2 | 265 to 267 °C | – | – | –
CNC(=O)c1cc2cc(Br)ccc2c(Cl)c1NC(=O)c1cc(C(F)(F)F)nn1-c1ncccc1Cl [Compound T2.1] | – | > 80% | > 80% | > 80%
CCNC(=O)c1cc2cc(Br)ccc2c(Cl)c1NC(=O)c1cc(C(F)(F)F)nn1-c1ncccc1Cl [Compound T2.2] | – | > 80% | > 80% | > 80%
CNC(=O)c1cc2cc(C#N)ccc2c(Cl)c1NC(=O)c1cc(C(F)(F)F)nn1-c1ncccc1Cl [Compound T5.1] | – | > 80% | > 80% | > 80%
CC(C)NC(=O)c1cc2cc(C#N)ccc2c(Cl)c1NC(=O)c1cc(C(F)(F)F)nn1-c1ncccc1Cl [Compound T5.3] | – | > 80% | > 80% | > 80%
CNC(=O)c1cc2ccccc2c(C)c1NC(=O)c1cc(C(F)(F)F)nn1-c1ncccc1Cl [Compound T8.1] | – | > 80% | > 80% | > 80%
CNC(=O)c1cc2cc(Br)ccc2c(Br)c1NC(=O)c1cc(C(F)(F)F)nn1-c1ncccc1Cl [Compound T9.1] | – | > 80% | > 80% | > 80%
CCNC(=O)c1cc2cc(Br)ccc2c(Br)c1NC(=O)c1cc(C(F)(F)F)nn1-c1ncccc1Cl [Compound T9.2] | – | > 80% | > 80% | > 80%
CC(C)NC(=O)c1cc2cc(Br)ccc2c(Br)c1NC(=O)c1cc(C(F)(F)F)nn1-c1ncccc1Cl [Compound T9.3] | – | > 80% | > 80% | > 80%
CNC(=O)c1cc2cc(Cl)ccc2c(Cl)c1NC(=O)c1cc(C(F)(F)F)nn1-c1ncccc1Cl [Compound T20.1] | – | > 80% | > 80% | > 80%
CC(C)NC(=O)c1cc2cc(Cl)ccc2c(Cl)c1NC(=O)c1cc(C(F)(F)F)nn1-c1ncccc1Cl [Compound T20.3] | – | > 80% | > 80% | > 80%
CC(C)NC(=O)c1cc(Cl)c2ccccc2c1NC(=O)c1cc(C(F)(F)F)nn1-c1ncccc1Cl [Compound T22.3] | – | > 80% | – | –
CNC(=O)c1c(NC(=O)c2cc(C(F)(F)F)nn2-c2ncccc2Cl)sc2c1CCCC2 [Compound T46.1] | 261 to 263 °C | – | – | –
CC(C)NC(=O)c1c(NC(=O)c2cc(C(F)(F)F)nn2-c2ncccc2Cl)sc2c1CCCC2 [Compound T46.3] | 246 to 248 °C | – | – | –
CNC(=O)c1cc2c(nc1NC(=O)c1cc(C(F)(F)F)nn1-c1ncccc1Cl)CCCC2 [Compound T50.1] | 145 to 147 °C | – | – | –
CC(C)NC(=O)c1cc2c(nc1NC(=O)c1cc(C(F)(F)F)nn1-c1ncccc1Cl)CCCC2 [Compound T50.3] | 143 to 145 °C | – | – | –
CNC(=O)c1c(NC(=O)c2cc(C(F)(F)F)nn2-c2ncccc2Cl)nc2c(c1-c1ccccc1)CCCC2 [Compound T51.1] | 165 to 168 °C | – | – | –
CC(C)NC(=O)c1c(NC(=O)c2cc(C(F)(F)F)nn2-c2ncccc2Cl)nc2c(c1-c1ccccc1)CCCC2 [Compound T51.3] | 146 to 148 °C | – | – | –

SMILES | melting point | inhibition at 400 ppm (Plutella xylostella) | inhibition at 400 ppm (Heliothis virescens) | inhibition at 400 ppm (Spodoptera littoralis)
CNC(=O)c1c(NC(=O)c2cc(C(F)(F)F)nn2-c2ncccc2Cl)nc2c(c1-c1ccccc1)CCCCC2 [Compound T52.1] | 211 to 213 °C | – | – | –
CC(C)NC(=O)c1c(NC(=O)c2cc(C(F)(F)F)nn2-c2ncccc2Cl)nc2c(c1-c1ccccc1)CCCCC2 [Compound T52.3] | 269 to 270 °C | – | – | –
CNC(=O)c1c(NC(=O)c2cc(C(F)(F)F)nn2-c2ncccc2Cl)nc2c(c1-c1cccc(Cl)c1)CCCC2 [Compound T53.1] | 183 to 185 °C | – | – | –
CC(C)NC(=O)c1c(NC(=O)c2cc(C(F)(F)F)nn2-c2ncccc2Cl)nc2c(c1-c1cccc(Cl)c1)CCCC2 [Compound T53.3] | 259 to 260 °C | – | – | –
CNC(=O)[C@H]1Cc2ccccc2C[C@H]1NC(=O)c1cc(C(F)(F)F)nn1-c1ncccc1Cl [Compound T72.1] | 226 to 228 °C | – | – | –
CC(C)NC(=O)[C@H]1Cc2ccccc2C[C@H]1NC(=O)c1cc(C(F)(F)F)nn1-c1ncccc1Cl [Compound T72.3] | 229 to 232 °C | – | – | –
O=C(N[C@@H]1Cc2ccccc2C[C@@H]1C(=O)NC1CC1)c1cc(C(F)(F)F)nn1-c1ncccc1Cl [Compound T72.207] | 230 to 233 °C | – | – | –
CSCC(C)(C)NC(=O)[C@H]1Cc2ccccc2C[C@H]1NC(=O)c1cc(C(F)(F)F)nn1-c1ncccc1Cl [Compound T72.273] | 184 to 186 °C | – | – | –
CNC(=O)[C@H]1Cc2ccccc2C(C)[C@H]1NC(=O)c1cc(C(F)(F)F)nn1-c1ncccc1Cl (stereo partly shown) [Compound T73.1] | 205 to 207 °C | – | – | –
CC(C)NC(=O)[C@H]1Cc2ccccc2C(C)[C@H]1NC(=O)c1cc(C(F)(F)F)nn1-c1ncccc1Cl (stereo partly shown) [Compound T73.3] | 223 to 225 °C | – | – | –
CC1c2ccccc2C[C@H](C(=O)NC2CC2)[C@@H]1NC(=O)c1cc(C(F)(F)F)nn1-c1ncccc1Cl (stereo partly shown) [Compound T73.207] | 192 to 194 °C | – | – | –
CNC(=O)c1c(NC(=O)c2cc(C(F)(F)F)nn2-c2ncccc2Cl)sc2c1CCC(OC)C2 (stereo not shown) [Compound T74.1] | 133 to 135 °C | – | – | –
COC1CCc2c(sc(NC(=O)c3cc(C(F)(F)F)nn3-c3ncccc3Cl)c2C(=O)NC(C)C)C1 (stereo not shown) [Compound T74.3] | 206 to 207 °C | – | – | –
CNC(=O)c1nc2ccccc2c(C)c1NC(=O)c1cc(C(F)(F)F)nn1-c1ncccc1Cl [Compound T75.1] | – | > 80% | > 80% | > 80%
Cc1c(NC(=O)c2cc(C(F)(F)F)nn2-c2ncccc2Cl)c(C(=O)NC(C)C)nc2ccccc12 [Compound T75.3] | – | > 80% | > 80% | > 80%
CNC(=O)c1cc2ccccc2c([N+](=O)[O-])c1NC(=O)c1cc(C(F)(F)F)nn1-c1ncccc1Cl [Compound T78.1] | – | > 80% | – | –
CNC(=O)c1sc2cccc(Cl)c2c1NC(=O)c1cc(C(F)(F)F)nn1-c1ncccc1Cl [Compound T79.1] | – | > 80% | > 80% | –
CNC(=O)c1c(NC(=O)c2cc(C(F)(F)F)nn2-c2ncccc2Cl)c(C)nc2ccccc12 [Compound T81.1] | – | > 80% | > 80% | –
CNC(=O)c1sc2nsc(C)c2c1NC(=O)c1cc(C(F)(F)F)nn1-c1ncccc1Cl [Compound T88.1] | 264 to 266 °C | – | – | –
Cc1snc2sc(C(=O)NC(C)C)c(NC(=O)c3cc(C(F)(F)F)nn3-c3ncccc3Cl)c12 [Compound T88.3] | 261 to 263 °C | – | – | –
